According to patent US20210115040A1, “OGA INHIBITOR COMPOUNDS” (Janssen Pharmaceutica NV, priority 2018, published 2021):

Target: T1, OGA (Homo sapiens, UniProt O60502)
T1 construct: HEK293 cells inducible for P301L mutant human Tau (isoform 2N4R) were established at Janssen; endogenous in cells; host or cells: HEK293 cells inducible for P301L mutant human Tau (2N4R)
T1 sequence (O60502 1-916): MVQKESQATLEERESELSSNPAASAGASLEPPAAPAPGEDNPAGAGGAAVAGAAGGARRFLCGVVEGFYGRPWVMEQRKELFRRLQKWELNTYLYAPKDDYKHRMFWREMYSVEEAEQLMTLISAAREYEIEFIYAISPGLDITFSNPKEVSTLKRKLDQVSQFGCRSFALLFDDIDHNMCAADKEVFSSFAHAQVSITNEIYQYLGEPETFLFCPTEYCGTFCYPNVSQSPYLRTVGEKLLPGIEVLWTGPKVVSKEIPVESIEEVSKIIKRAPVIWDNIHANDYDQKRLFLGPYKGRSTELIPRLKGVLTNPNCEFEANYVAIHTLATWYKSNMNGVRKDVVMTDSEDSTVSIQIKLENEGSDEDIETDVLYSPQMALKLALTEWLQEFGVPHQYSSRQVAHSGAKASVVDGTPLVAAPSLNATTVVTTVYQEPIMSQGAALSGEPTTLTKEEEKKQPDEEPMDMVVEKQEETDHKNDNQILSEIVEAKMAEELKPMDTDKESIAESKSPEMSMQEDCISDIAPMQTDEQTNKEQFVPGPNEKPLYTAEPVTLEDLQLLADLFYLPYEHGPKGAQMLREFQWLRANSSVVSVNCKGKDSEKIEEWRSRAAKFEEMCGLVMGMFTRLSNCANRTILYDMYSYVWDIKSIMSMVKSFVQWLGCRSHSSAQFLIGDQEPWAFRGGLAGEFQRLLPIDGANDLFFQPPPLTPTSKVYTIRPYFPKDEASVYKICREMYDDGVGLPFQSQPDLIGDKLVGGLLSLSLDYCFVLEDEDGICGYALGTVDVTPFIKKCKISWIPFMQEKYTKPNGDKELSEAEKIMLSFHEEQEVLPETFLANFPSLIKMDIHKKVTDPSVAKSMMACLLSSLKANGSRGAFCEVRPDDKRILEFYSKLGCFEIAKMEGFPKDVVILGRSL
Assay: OGA cellular assay (ICC detection of O-GlcNAcylated proteins in HEK293 cells inducible for P301L mutant human Tau)
Type: cell-based
In short: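 HEK293 cells inducible for P301L Tau (2N4R), seeded in low-glucose medium, treated with compound for 6 h at 0.2% DMSO. O-GlcNAc immunostained with CTD110.6 after PFA fixation; 488 nm intensity imaged, Hoechst nuclei counted for toxicity. IC50 by non-linear regression, 200 uM Thiamet G as maximum.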

Cc1cc(C2CCCN(C(C)c3ccc4sc(C)nc4n3)C2)cc(C)n1 (racemic) [Compound 39]
Emax (HEK293, HEK293 cells inducible for P301L mutant human Tau, maximum = Thiamet G 200 uM): 79%
EC50 (HEK293 cells inducible for P301L mutant human Tau, 6 hours incubation, read-out: Cellular hOGA, pEC50 (converted)): 63.1 nM
